According to US8349845B2, “Thiazolopyrimidines for use in therapy” (Sosei Group Corporation, priority 2005, dated 2013):

Legend:
[1] = tested on: ectopic discharge in CCI rats; assay: Acute administration, spontaneous ectopic discharge in sural nerve of CCI rats; type: in vivo, rat
Experimental: The preparation of CCI model rats and the assessment of neuropathic pain state were as described for Example 1. The electrophysiological experiments were performed on CCI rats with neuropathic pain states confirmed by von Frey hair testing as previously described. Compound 1 suspension was made in a vehicle containing 1% DMSO, 66% PEG200 and 33% saline to 5 mg/ml. Rats with neuropathic pain were anaesthetized with thiobutabarbital sodium (inactin, 120 mg/kg, i.p. for induction and thereafter 60 mg/kg, i.p. for maintenance, if necessary). The arterial blood pressure and heart rate were routinely monitored and rectal temperature was continuously monitored and maintained at a physiological range using a thermo-blanket system. The skin of the left hind limb was incised and stitched onto a stainless steel “O” ring to form an oil pool. The sural nerve was carefully exposed and repeatedly teased into small bundles containing only one or a few fibres and examined for spontaneous activity. In acute experiments, when an active fibre was found, a period of at least 20 min control recording was obtained. Subsequently, the effects of the vehicle and Compound 1 (5 mg/kg, i.v.) were examined. Activity was monitored for at least 40 minutes following administration of the drug. The frequency of the spontaneous activity was monitored online and analysed offline after experiment. For i.v. injection, Compound 1 suspension (5 mg/ml) was prepared using a vehicle made of 1% DMSO, 66% polyethelene glycol (PEG 200) and 33% normal saline. The suspension was then sonicated for 30 min before administration.

[2] = tested on: rats with diabetic neuropathy; assay: PWT in rats with streptozotocin-induced diabetic neuropathy; type: in vivo, rat
Experimental: Under isofluorane anaesthesia, adult male Sprague-Dawley rats (150-200 g) were given an intraperitoneal injection of streptozotocin (75 mg/kg, Calbiochem). After injection, particular care was taken to ensure that water and food were available at all time and the beddings were changed frequently. A week after streptozocin injection, the blood glucose content was examined using Advantage II with Accutech strips (Roche). Only rats with blood glucose higher than 12 mM/L (216 mg/DL) were chosen for behavioural study. The assessment of neuropathic pain state using von Frey hairs was the same as described for Example 1. Rats with lowered PWT (<4 g) were used for either vehicle (1 ml/kg, p.o. or Compound 1 (1, 3, 10, and 30 mg/kg p.o.) dosing. The PWT was reassessed at 1, 2, 3, 4 and 6 hours after oral dosing.

[3] = tested on: lipopolysaccharide-induced polyclonal antibody responses; conditions: preclinical studies; cited from earlier work
[4] = tested on: ectopic discharge in CCI rats; assay: Chronic dosing, generation of ectopic discharge and PWT in CCI rats; type: in vivo, rat
Experimental: After confirmation of neuropathic pain state on day 16 post-surgery, the animals (4 for vehicle group and 4 for drug treatment group) were given either vehicle (5% DMSO in saline) or Compound 130 mg/kg p.o., twice a day for 8 days. At the end of the dosing protocol, the PWT was reassessed before the electrophysiological experiment. The sural nerve was repeatedly teased into fine bundles for examination. For a fibre with spontaneous activity, the recording lasted for at least 1 min; for a fiber without obvious spontaneous activity, the recording lasted for at least 30 sec. In each sural nerve, as many fibres as possible were teased and recorded (more than 150 bundles on average in one animal).

[5] = tested on: rat Brennan model of surgical pain; assay: PWT in the rat Brennan model of surgical pain; type: in vivo
Experimental: The surgical pain model was prepared as described by Brennan et al (1996). Briefly, the rat was anaesthetised with 5% isofluorane in oxygen (2 L/min) for induction followed by an intravenous injection of sodium pentobarbitone (50 mg/kg) prior to surgery. The surgery was carried out under aseptic routines. The left hind paw was sterilized with 75% ethanol solution. A 1.5 cm longitudinal incision was made with a scalpel from about 0.5 cm of the heel edge towards the toes. The plantaris muscle and fascia were elevated and incised longitudinally but the structure of these tissues kept intact. After complete hemostasis with pressure, the skin was closed with stitches of 5-0 suture silk. The animal was routinely given an intraperitoneal injection of Amoxipen 15 mg/kg for prevention of infection after surgery. After surgery, the animals were placed in a temperature-controlled recovering chamber until full return of conscience and voluntary movement, before being returned to their home cages.

CCI rats [6] = assay: Single oral dose study, mechanical allodynia (von Frey PWT) in rat chronic constriction injury (CCI) model; type: in vivo; conditions: 20 mg/kg p.o.; for paw withdrawal threshold (PWT): mean±S.E.M.
Experimental: The rat chronic constriction injury (CCI) model was prepared following the standard protocols (Bennett and Xie, 1988). Briefly, male Sprague-Dawley rats, weighing 150-175 gram at arrival, were anaesthetized with a 5% isofluorane/95% oxygen gas mixture followed by an i.p. injection of sodium pentobarbitone (50 mg/kg). The lateral side of the left hind limb was shaved and sterilized with 75% ethanol. An incision of about 1 cm was made to expose the sciatic nerve. Four loose ligations with 4-0 suture silk were made on the sciatic nerve. The wound was closed in layers with silk suture and the animals were placed in a recovering chamber with the temperature controlled at 30° C. The animals were then returned to their home cage after complete return of consciousness and the return of free movement. A dose of amoxicillin (0.1 ml, 15 mg) was routinely injected intraperitoneally after surgery to prevent infection. In CCI rats, the assessment of paw withdrawal threshold (PWT) in response to the mechanical stimulation started 14 days after surgery. […] The PWT was measured using a series of graduated von Frey hairs. The animals were placed in individual perspex boxes on a raised metal mesh for at least 30 min before the test. Starting from a filament of lower force (1 g), each filament was applied perpendicularly to the centre of the paw pad until it slightly bends for 6 seconds. If the animal withdrew or lifted the paw upon stimulation, then a hair with force immediately lower than that tested would be used. If no response was observed, then a hair with force immediately higher would be used. The lowest amount of force required to induce reliable responses (positive in 3 out of 5 trials) was recorded as the value of PWT. A suspension of Compound 1 was made with 5% DMSO in saline (10 mg/ml). The suspension was sonicated for at least 20 min before application. All data in this study are presented as mean±S.E.M. and are analysed with the student-t-test or one way ANOVA as appropriate. The significance level was set at P<0.05.

CCI rats [7] = assay: Dose-response study, mechanical allodynia (PWT) in CCI model; type: in vivo, rat; conditions: CCI rats, 1, 3, 10, 30 mg/kg orally, 30-360 min after dosing
Experimental: The methods for preparing CCI animals and assessing mechanical allodynia using von Frey hairs were as described in Example 1. Four doses of Compound 1 (1, 3, 10, 30 mg/kg) were given orally and the PWT was reassessed at 30, 60, 120, 180, 240 and 360 min after dosing.

[8] = tested on: mice with autoimmune neuropathy; conditions: preclinical studies; cited from earlier work
CCI rats [9] = assay: Tolerance liability in CCI model (PWT over 7 days of dosing); type: in vivo, rat
Experimental: The preparation of CCI model rats and the assessment of neuropathic pain state using von Frey hairs were as the same as described for Example 1. The PWT was assessed in the morning for 3 consecutive days prior to the surgery and on days 6, 14, 15 and 16 after surgery. Starting from day 16, the animals were either dosed with vehicle (5% DMSO in saline, 1 ml/kg) or Compound 130 mg/kg p.o., twice a day for 7 days. From day 16 onward, PWT was assessed thereafter every morning and 4 hours after dosing, up to day 23 post surgery.

[10] = doses higher than 3 mg/kg p.o., dose-dependent
[11] = CCI rats after chronic treatment

Structure (SMILES): O=C1N=C2SCCN2C(=O)C1Cc1ccc(Cl)cc1 (stereo not shown) [Compound 1, 6-(p-chlorobenzyl)-5H-2,3,6,7-tetrahydro-5,7-dioxothiazolo[3,2-a]pyrimidine]
- ectopic discharge after injection ([1]; first CCI preparation, 5 mg/kg i.v., reduced from 682 imps/min): 426 imps/min
- firing rate of ectopic discharge, % of control ([1]; four fibres, after administration, P<0.01): 57.1±9.0 % of control
- average firing rate of ectopic discharge after administration ([1]; four fibres, before drug 489.7±125.8 imps/min, P<0.01): 307.6±113.4 imps/min
- ectopic discharge after injection ([1]; second CCI preparation, iv injection, reduced from 298 imps/min): 104 imps/min
- changes in PWT ([2]; 1 mg/kg p.o.): Neither vehicle or Compound 1 at 1 mg/kg produced significant changes in PWT
- changes in PWT [2, 10]: significantly increased the PWT
- lipopolysaccharide-induced polyclonal antibody responses [3]: inhibited
- PWT compared with vehicle-treated ([4]; 4 CCI rats, after 8 days of treatment p.o. twice a day): significantly higher
- averaged frequency of spontaneous activity [4, 11]: 888.9 ± 148.5 min⁻¹
- comparison of averaged frequency of spontaneous activity with vehicle group [4, 11]: failed to reveal significant difference
- fibres with spontaneous activity ([4]; among 633 fibres recorded from 4 treated rats (vehicle 197 of 602)): 48 fibres
- proportions of fibres with spontaneous activity ([4]; chronic treatment of CCI rats, vs vehicle, P<0.001 χ2 test): significantly reduced
- time after dosing at which the effect on PWT was first observed [5]: 4 h
- time after dosing up to which the effect on PWT lasted [5]: up to 8 hours
- changes in PWT ([5]; 3 mg/kg, n=7, P>0.05): Neither vehicle (n=8) or Compound 1 at 3 mg/kg (n=7) produced significant changes in PWT
- analgesic effect after 6 hours ([5]; 10 mg/kg): had gone
- PWT ([5]; 10 mg/kg, at 4 hours, from control level 1.50±0.36 g, P<0.05): 2.60 ± 0.48 g
- PWT ([5]; 30 mg/kg, 6 hours post-dose, P<0.001 vs vehicle): 5.28 ± 0.66 g
- PWT ([5]; 30 mg/kg, 8 hours post-dose, P<0.001 vs vehicle): 4.16 ± 0.79 g
- PWT ([5]; 30 mg/kg, at 4 hours, from control level 1.82±3.8 g, P<0.001): 3.80 ± 0.44 g
- changes in PWT [5, 10]: significantly increased the PWT
- duration of the effect on PWT (CCI rats [6]): > 6 h
- paw withdrawal threshold (PWT) (CCI rats [6]; 2 hours after dosing, P<0.05 vs vehicle): 2.6 ± 0.7 g
- paw withdrawal threshold (PWT) (CCI rats [6]; 3 hours after dosing, P<0.01 vs vehicle): 3.0 ± 0.7 g
- paw withdrawal threshold (PWT) (CCI rats [6]; 4 hours after dosing, P<0.001 vs vehicle): 6.3 ± 0.8 g
- paw withdrawal threshold (PWT) (CCI rats [6]; 6 hours after dosing, P<0.001 vs pre-dosing control): 4.0 ± 0.5 g
- effect on PWT (CCI rats [7]): dose-dependently increased the PWT
- kidney function [8]: restored kidney function
- baseline PWT compared with vehicle group (CCI rats [9]; after the first day's treatment and throughout the 7 day dosing period, p.o. twice a day): higher than that observed in the vehicle group
- time for which CCI-induced mechanical allodynia is alleviated post-dose (CCI rats [9]; on repeat dosing): 12 h
- loss of efficacy in reversing lowered PWT (CCI rats [9]; over 7 days of treatment): no significant loss of efficacy
